Source: BindingDB's records for doi:10.1021/jm070336k (University of Mississippi, 2007)

Target: L-lactate dehydrogenase B chain (Bos taurus, UniProt Q5E9B1)
Experiment: Lactate Dehydrogenase Inhibition Assay
Conditions: pH 7; 25 °C

L-lactate dehydrogenase B chain, sequence (Q5E9B1 whole entry): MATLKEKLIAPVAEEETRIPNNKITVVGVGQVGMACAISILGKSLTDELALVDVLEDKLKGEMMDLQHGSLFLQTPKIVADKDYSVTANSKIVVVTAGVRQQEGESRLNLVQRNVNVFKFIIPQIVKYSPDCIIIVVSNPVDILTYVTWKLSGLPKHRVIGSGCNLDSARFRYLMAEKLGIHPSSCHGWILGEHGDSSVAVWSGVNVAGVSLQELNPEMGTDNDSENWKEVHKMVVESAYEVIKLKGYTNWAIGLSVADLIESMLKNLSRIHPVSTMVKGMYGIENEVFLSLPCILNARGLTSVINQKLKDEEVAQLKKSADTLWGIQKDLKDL

Row | IC50 | Structure (SMILES)
1 | > 225 µM | COc1cc(CCOc2cc(O)c3c(=O)cc(C(=O)O)oc3c2)ccc1NC(=O)C(=O)O [7-{2-[4-(formamidoformic acid)-3-methoxyphenyl]ethoxy}-5-hydroxy-4-oxo-4H-chromene-2-carboxylic acid]
2 | > 241 µM | O=C(O)C(=O)Nc1ccc(CCOc2cc(O)c3c(=O)cc(C(=O)O)oc3c2)cc1 [7-{2-[4-(formamidoformic acid)phenyl]ethoxy}-5-hydroxy-4-oxo-4H-chromene-2-carboxylic acid]
3 | > 232 µM | COc1cc(COc2cc(O)c3c(=O)cc(C(=O)O)oc3c2)ccc1NC(=O)C(=O)O [7-{[4-(formamidoformic acid)-3-methoxyphenyl]methoxy}-5-hydroxy-4-oxo-4H-chromene-2-carboxylic acid]
4 | > 179 µM | COc1ccc(CNC(=O)c2cc(=O)c3c(O)cc(OCCc4ccc(NC(=O)C(=O)O)c(C#N)c4)cc3o2)cc1 [[(2-cyano-4-{2-[(5-hydroxy-2-{[(4-methoxyphenyl)methyl]carbamoyl}-4-oxo-4H-chromen-7-yl)oxy]ethyl}phenyl)carbamoyl]formic acid]
5 | > 187 µM | COc1ccc(CNC(=O)c2cc(=O)c3c(O)cc(OCCc4ccc(NC(=O)C(=O)O)cc4)cc3o2)cc1 [[(4-{2-[(5-hydroxy-2-{[(4-methoxyphenyl)methyl]carbamoyl}-4-oxo-4H-chromen-7-yl)oxy]ethyl}phenyl)carbamoyl]formic acid]

Target: L-lactate dehydrogenase (Plasmodium falciparum (isolate CDC / Honduras), UniProt Q27743)
Experiment: Lactate Dehydrogenase Inhibition Assay
Conditions: pH 7; 25 °C

L-lactate dehydrogenase, sequence (Q27743 whole entry): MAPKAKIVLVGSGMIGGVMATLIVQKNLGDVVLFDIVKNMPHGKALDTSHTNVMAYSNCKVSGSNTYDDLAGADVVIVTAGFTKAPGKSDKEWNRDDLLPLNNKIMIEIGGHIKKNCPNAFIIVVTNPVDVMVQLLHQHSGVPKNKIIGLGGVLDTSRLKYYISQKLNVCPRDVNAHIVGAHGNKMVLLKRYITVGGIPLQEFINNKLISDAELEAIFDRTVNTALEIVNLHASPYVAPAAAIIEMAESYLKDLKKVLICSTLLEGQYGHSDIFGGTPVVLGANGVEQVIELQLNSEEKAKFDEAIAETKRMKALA

Row | IC50 | Structure (SMILES)
6 | > 241 µM | O=C(O)C(=O)Nc1ccc(CCOc2cc(O)c3c(=O)cc(C(=O)O)oc3c2)cc1 [7-{2-[4-(formamidoformic acid)phenyl]ethoxy}-5-hydroxy-4-oxo-4H-chromene-2-carboxylic acid]
